Legend:
K562 cells = assay: Oxygen consumption rate after Ara-C, K562; format: cell-based; details: Ara-C for 16 hours
Description: (§1) FIGS. 2A-2B. […] K562 cells (FIG. 2A) and OCI-AML3 (FIG. 2B) and were treated with Ara-C for 16 hours and oxygen consumption rate (OCR) was assessed. Shown is the average OCR from 3 independent experiments each done in triplicate. P value for OCI-AML3 is 0.0387 and for K562 is <0.0001.

OCI-AML3 = assay: Oxygen consumption rate after Ara-C, OCI-AML3; format: cell-based; details: Ara-C for 16 hours
Description: as §1

[1] = system: relapsed or refractory AML; assay: Phase I study of CPI-613 in combination with high dose cytarabine and mitoxantrone; format: in vivo, human
Source text: FIGS. 8A-8B. Survival compared to historical cohort. CPI-HAM survival in the evaluable population compared to a historical cohort. (FIG. 8A) Kaplan-Meier curve of overall survival of elderly AML patients treated with high dose cytarabine, mitoxantrone, and CPI-613 (CPI-HAM) or a historical cohort of poor risk relapsed or refractory patients treated with high dose cytarabine, mitoxantrone, and asparaginase (HAMA). (FIG. 8B) Kaplan-Meier curve of overall survival of poor risk, relapsed or refractory AML patients treated with high dose cytarabine, mitoxantrone, and CPI-613 (CPI-HAM) or a historical cohort of poor risk relapsed or refractory patients treated with high dose cytarabine, mitoxantrone, and asparaginase (HAMA). Kaplan-Meier estimates were compared by log-rank test.
In a recently completed phase I study, CPI-613 was given in combination with high dose cytarabine and mitoxantrone to patients with relapsed or refractory AML (FIGS. 6-7). In this trial, 67 patients were enrolled and 62 were evaluable. […] The median age was 60 years (range 21-79). In patients with relapsed disease the median duration of CR1 was 11.2 months. Cytogenetics were poor risk in 27 patients, intermediate in 33, and good in 6. In the 62 evaluable patients the results were as follows. The overall response rate was 50% (26CR+5CRi) with a median survival of 6.7 months. […] When compared to historical controls treated with the same chemotherapy without CPI-613 an increase in response rate was seen. […] Additionally, the median survival of the historical patients was only 2.8 months while the median survival in the CPI-613 treated patients was 5.5 months (FIG. 8B). […] In patients >60 years old the CR/CRi rate was 47% (15/32) with a median survival of 6.9 months (FIG. 8A).

[2] = system: AMPK deleted MFL2 AML cells; assay: Competition assay, Cas9 expressing MFL2 cells with sgRNA targeting AMPK; format: cell-based; details: 72 hours with drug, % GFP+ in the viable population
Description: (§2) FIGS. 9A-9C. AMPK Contributes to Resistance to CPI-613. (FIG. 9A) CPI-613 induces AMPK phosphorylation. Blood samples were taken on day one of treatment at the indicated time points following infusion of CPI-613. Red blood cells were lysed, and mononuclear cells were isolated. Extracts were prepared and blotted for phosphorylated AMPK. Both patients had circulating blasts at the time of sampling. Actin was used as a loading control. (FIG. 9B) Competition assay. Cas9 expressing MFL2 cells were partially infected with an sgRNA vector targeting AMPK tagged with GFP. Cells were incubated with the indicated drug for 72 hours and the % GFP+determined in the viable population. (FIG. 9C) Viability assay. Clones of Cas9 expressing MFL2 cells with sgRNAs targeting AMPK or ROSA26 were incubated with the indicated drug for 72 hours and viability determined.
(§3) Several patients had blood samples taken before and after CPI-613 infusion. […] The role of AMPK in response was assessed by competition assays using Cas-9 expressing AML cells that have deleted AMPK (FIG. 9B).

AMPK = AMPK phosphorylation blot of patient mononuclear cells after CPI-613 infusion; format: in vivo, human; details: two patients, day one after infusion
Description: as §2, §3

[3] = system: advanced myeloid malignancies; details: single agent; heavily pre-treated cohort; cited from earlier work
Baf3-p210 cells = assay: Survival of Balb/c mice injected with Baf3-p210 cells; format: in vivo; details: CPI at 250 mg/kg plus Doxorubicin at 3 mg/kg, day 3
Description: FIG. 4. […] Balb/c mice were injected with Baf3-p210 cells and on day 3 treated with saline (control), Doxorubicin at 3 mg/kg or CPI at 250 mg/kg plus doxorubicin. Dox=Doxorubicin, CPI=CPI-613. P value shown is for Dox vs CPI-Dox.

Murine AML cells (M1p5) = assay: Viability of M1p5 AML cells expressing p53 shRNA or vector control; format: cell-based; details: 72 hours; for response of p53 shRNA cells compared to vector controls (viability): single agent
Description: FIGS. 10A-10C. CPI-613 induces chemotherapy sensitivity in p53 suppressed AML cells. (FIG. 10A) Murine AML cells (M1p5) expressing an shRNA against p53 (p53 shRNA) or vector control (GFP Control) were exposed to the indicated amount of CPI-613 (in μmoles). After 72 hours viability was determined and compared to untreated cells. (FIG. 10B) Murine AML cells (M1p5) expressing an shRNA against p53 (p53 shRNA) or vector control (GFP Control) were exposed to the indicated amount of doxorubicin (in nmoles). After 72 hours viability was determined and compared to untreated cells. (FIG. 10C) Murine AML cells (M1p5) expressing an shRNA against p53 (p53 shRNA) or vector control (GFP Control) were exposed to 50 μM CPI-613 and 2.5, 5, or 10 nM Doxorubicin for 72 hours. Following exposure viability was assessed and compared to untreated cells.
Loss of p53 is associated with poor risk cytogenetics, poor prognosis and resistance to chemotherapy but not resistance to CPI-613. In AML patients poor risk karyotypes are associated with p53 loss or mutation in 70-80% of cases (13, 29). Indeed it has been argued that much of the prognostic importance of poor risk karyotypes is mediated by p53 loss (13). This is not surprising given the association between p53 status and response to chemotherapy in AML (30). In order to assess the consequences of p53 suppression on mitochondrial inhibition we generated murine AML cells that knocked down p53 by shRNA.

PDH = PDH phosphorylation in patient blood samples before and after CPI-613 infusion; format: in vivo, human; details: three patients
Description: as §3

AML cell lines = assay: AML cell growth under mitochondrial inhibition; format: cell-based, human and murine; details: for AML cell growth: multiple human and murine cell lines, single agent
[4] = 62 evaluable patients, CPI-613 with high dose cytarabine and mitoxantrone

With `Nc1ccn([C@@H]2O[C@H](CO)[C@@H](O)[C@@H]2O)c(=O)n1` [cytarabine] the “oxygen consumption rate (OCR)” value (K562 cells) was “induces mitochondrial metabolism” and the “oxygen consumption rate (OCR)” value (OCI-AML3) was “induces mitochondrial metabolism”.

For `O=C(O)CCCCC(CCSCc1ccccc1)SCc1ccccc1` (stereo not shown) [CPI-613], the median survival [1, 4] was 6.7 months, the “overall response rate (CR+CRi)” value [1, 4] was 50% and the “CR/CRi rate, patients >60 years old” value ([1]; patients >60 years old (15/32)) was 47%. The “median survival, patients >60 years old” value ([1]; patients >60 years old (FIG. 8A)) was 6.9 months, the “median survival for all others” value ([1]; patients without response, CPI-613 with high dose cytarabine and mitoxantrone) was 3 months and the “median survival, poor risk” value ([1]; poor risk CPI-613 treated patients (FIG. 8B)) was 5.5 months. The “response rate, poor risk cytogenetics” value ([1]; poor risk cytogenetics (9CR+2CRi/24), CPI-613 with high dose cytarabine and mitoxantrone) was 46%, the “response rate versus historical controls, poor risk disease” value ([1]; poor risk disease, compared with the same chemotherapy without CPI-613) was “more than doubled” and the “median survival in responders” value ([1]; responders, CPI-613 with high dose cytarabine and mitoxantrone) was 13.2 months. For the same molecule, the “competition of normal versus AMPK deleted cells” value [2] was “Normal cells out-competed AMPK deleted cells”, the “phosphorylation of AMPK” value (AMPK) was “robust phosphorylation of AMPK” and the overall response rate [3] was 29%. For the same molecule, the “combination effect with doxorubicin in vivo” value (Baf3-p210 cells) was “acts synergistically with doxorubicin in vivo”, the “sensitivity of p53 shRNA cells to doxorubicin in presence of CPI-613” value (Murine AML cells (M1p5); 50 μM CPI-613 and 2.5, 5, or 10 nM Doxorubicin) was “increased sensitivity to doxorubicin to that of the controls” and the “response of p53 shRNA cells compared to vector controls (viability)” value (Murine AML cells (M1p5)) was “no change in response”. The “phosphorylation of PDH” value (PDH) was “increased phosphorylation of PDH”, the AML cell growth (AML cell lines) was “impairs AML cell growth” and the “combination effect of metformin and CPI-613” value (AML cell lines; the two together) was “synergistic in vitro and in vivo”.

With `COc1cccc2c1C(=O)c1c(O)c3c(c(O)c1C2=O)C[C@@](O)(C(=O)CO)C[C@@H]3O[C@H]1C[C@H](N)[C@H](O)[C@H](C)O1` [doxorubicin] the “response of p53 shRNA cells compared to vector controls (viability)” value (Murine AML cells (M1p5)) was “significantly resistant”.

In the case of `CN(C)C(=N)N=C(N)N` [metformin], the AML cell growth (AML cell lines) is reported as “impairs AML cell growth”.

— patent US20200063210A1, “Gene Expression Signatures Associated with Patient Response to Acute Myeloid Leukemia Treatment and Use Thereof for Predicting Response to Therapy” (WAKE FOREST UNIVERSITY HEALTH SCIENCES, priority 2016, published 2020)
